One data set relates to male C57BL/6J mice. Kind of data set: Mouse oral glucose tolerance test. It is filed as in vivo. The settings on record: for Minimally efficacious Dose / Glucose Lowering: oral; for Minimally efficacious Dose: given 60 min before glucose load (2 g/kg), oGTT in C57BL/6J mice; for Glucose Lowering: plasma glucose AUC change vs vehicle at the minimally efficacious dose. The protocol:
Mouse Oral Glucose Tolerance Test
Twenty four (24) male C57BL/6J mice (8-10 weeks old, average weight 28 g) were randomized into 4 groups (1 mouse/cage) of 6 mice per group based on fed plasma glucose and body weight. Prior to initiating the study, mice were fasted overnight and the next morning they were weighed and placed in the experimental lab. After 30 min in the environment, the mice were bled via tail tip at −60 min and immediately given their first oral administration of vehicle (40% PEG400, 10% Cremophor EL, 50% water) or compound solutions (5 ml/kg). At time 0 the mice were bled and given 50% glucose (2 g/kg) to initiate the oral glucose tolerance test (oGTT). The mice were bled 30, 60 and 120 min after the glucose load. Blood samples were drawn into potassium EDTA, placed on ice during the study and subsequently centrifuged for 10 min at 3000 rpm at 4° C. Plasma samples were diluted 11-fold for glucose analysis in the COBAS MIRA® System (Roche Diagnostics). Area under the curve was calculated from the plasma glucose time course data using the trapezoid rule with fasting plasma glucose as the baseline (GraphPad Prism Software). The statistical significance of the changes in the glucose AUCs resulting from the different treatments was determined by one-way ANOVA followed by Dunnett's test using the vehicle group as the control (JMP software, release 5.1.2).
Find below in Table 6 data for compared compounds (See WO 2009/012275 A1).

The target of data set [1] is T1, human-mouse chimeric GPR119 (Homo sapiens, UniProt Q8TDV5, A235T/C313R/C323Y/E253K/F304I/F307L/G211A/G245S/H255C/K284R/L224V/L258Q/L288Q/L301F/P218V/P318T/Q252H/R262K/S214P/S219N/S228A/S309P/S322A/T217S/T239S/V227I/V300F).
T1 construct: the first 198 amino acids of human GPR119; the C-terminal 137 amino acids of the mouse receptor; expressed in transfected cells
T1 sequence (Q8TDV5 with tags, fused parts or gaps G211A/S214P/T217S/P218V/S219N/L224V/V227I/S228A/A235T/T239S/G245S/Q252H/E253K/H255C/L258Q/R262K/K284R/L288Q/V300F/L301F/F304I/F307L/S309P/C313R/P318T/S322A/C323Y): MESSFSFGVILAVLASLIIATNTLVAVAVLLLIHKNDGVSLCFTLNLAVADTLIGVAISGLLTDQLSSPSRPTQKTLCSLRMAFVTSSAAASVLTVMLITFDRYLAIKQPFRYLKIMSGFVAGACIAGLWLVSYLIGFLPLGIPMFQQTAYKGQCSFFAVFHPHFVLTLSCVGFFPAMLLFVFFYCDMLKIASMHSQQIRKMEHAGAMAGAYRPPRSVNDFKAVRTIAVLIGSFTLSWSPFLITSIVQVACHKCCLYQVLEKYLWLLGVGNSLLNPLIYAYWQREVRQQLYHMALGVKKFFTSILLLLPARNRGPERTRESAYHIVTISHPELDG
Kind of data set: Tet-inducible cAMP assay (cAMP accumulation, HTRF). It is filed as cell-based. How it is done: The in vitro modulation of recombinant human GPR119 was determined as follows.
A human-mouse chimeric GPR119 expression construct encoding 3 copies of the FLAG epitope tag, the first 198 amino acids of human GPR119 and the C-terminal 137 amino acids of the mouse receptor was cloned into a tetracycline inducible vector pcDNA5/FRT/TO (Invitrogen #V6520-20), which includes a hygromycin-resistance marker. Tightly controlled receptor expression was achieved by stable integration of this construct into the genome of a specific host cell line, Flp-In-T-Rex-HEK293, expressing the tetracycline repressor (Invitrogen). Once a stable hygromycin-resistant cell line was generated, the cells were maintained at 37° C. in a humidified 5% CO2 atmosphere in culture medium consisting of Dulbecco's modified Eagle's medium (DMEM; Invitrogen #11960) supplemented with 2 mM L-glutamine, 10% fetal bovine serum, 200 μg/ml hygromycin B, and 15 μg/ml blasticidin.
Forty-eight hours prior to the cAMP accumulation assay, cells stably expressing the chimeric human/mouse GPR119 construct were seeded at a density of 4×10^3 cells/well in 384 well poly-D-lysine coated solid white plates (BD #35-6661) and grown at 37° C. in a humidified 5% CO2 atmosphere in culture medium supplemented with 1 μg/ml tetracycline to induce expression of the receptor. On the day of the assay, medium was removed and cells were incubated for 50 min. at 37° C. in a humidified 5% CO2 atmosphere in 20 μl/well of assay buffer (phosphate-buffered saline with Ca^2+ and Mg^2+, 12 mM glucose, 0.1 mM isobutyl-methyl-xanthine, 0.1% fatty-acid free bovine serum albumin) with the desired concentration of compound added from a concentrated stock dissolved in dimethyl sulfoxide (DMSO) to give a final concentration of 1% DMSO in the assay. cAMP accumulation was measured using the CisBio homogeneous time resolved fluorescence (HTRF) assay kit (#62AM2PEC) following the manufacturer's protocol. Briefly, 10 μl each of the cAMP-HTRF fluorescence detection reagents were added to each well, and the samples were incubated for 40 min. at room temperature. Fluorescence was excited at 320 nm and measured at 665 and 620 nm using the Envision instrument (Perkin Elmer), the fluorescence ratio of 665/620 was calculated and converted to nanomolar concentrations of cAMP in each well by interpolation from a cAMP standard curve. The concentration-response curves and EC50 values were calculated with a four parameter logistic curve fit equation utilizing Excel/XLfit software (Microsoft and IDBS). The EC50 value was calculated as the concentration of agonist which increased the cAMP concentration to a value halfway between the baseline and the maximum.
Compounds of the present invention were tested in the Tet-inducible cAMP assay described immediately above and the results shown in Table 5 below were obtained.
(Changes in cAMP serve as a functional read-out for many G protein-coupled receptors.)

A short description of the next data set: in vitro. The settings on record: human, microsomes, pH 7.4.
Data set [2] can be described thus: Metabolic stability in liver microsomes test. The conditions noted are these: human, pH 7.4. (Liver microsomes are vesicles of endoplasmic reticulum, rich in cytochrome P450 enzymes.)
Method: (§1) Metabolic Stability in Liver Microsomes Test
(§2) Human liver microsomes were purchased from BD-Biosciences (Woburn, Mass.). The test compound was received as a 3.5 mM stock solution in 100 percent dimethyl sulfoxide (“DMSO”, Sigma Aldritch). […] The test compound, β-nicotinamide adenine dinucleotide phosphate (“NADPH”, AppliChem Inc.) and liver microsome solutions are combined for incubation in three steps:
(§3) 1) 450 μl of liver microsome suspension, protein concentration of 1.1 mg/ml in 100 mM sodium (+)/phosphate (“NaPi”, pH 7.4, Sigma Aldritch) buffer, 5 mM magnesium chloride (“MgCl2, Sigma Aldritch) buffer, is pre-warmed at 37° C.;
(§4) 3) The reaction is initiated by the addition of 50 μl of pre-warmed 10 mM NADPH solution in 100 mM NaPi, pH 7.4.
(§5) Reaction components are mixed well and then 65 μl are immediately transferred into 130 μl of quench/stop solution (zero-time point, T0). […] ACN containing Internal Standard (100 ng/ml), is used as the quench solution to terminate metabolic reactions. The quenched mixtures are centrifuged at 1500 rpm (˜500×g) in an Allegra X-12 centrifuge, SX4750 rotor (Beckman Coulter Inc., Fullerton, Calif.) for fifteen minutes to pellet denatured microsomes. A volume of 90 μl of supernatant extract, containing the mixture of parent compound and its metabolites, is then transferred to a separate 96-well plate for LC/MS-MS analysis to determine the percent of parent compound that is remaining in the mixture. Peak integration is performed on all samples using the Hepatic Clearance Calculator of QuickCalc by Gubbs, Inc. The percent remaining calculation is performed by comparing the LC-MS/MS peak areas from the samples at each time point to those from the T0 samples for each compound.
The mark [3] stands for this setting: Flp-In-T-Rex-HEK293 cells expressing chimeric human/mouse GPR119, cAMP accumulation, read-out: GPR119 EC50.

Where two headings read alike, the source gives them in different places.

What is called EC50 is the concentration at which the effect is half-maximal. By half-life is commonly meant the time in which the quantity being followed falls by half. The low end stands for fast loss, the high end for slow loss.

Method for in vitro: as §1, §2, §3, §4, §5

Compound `CS(=O)(=O)c1ccc(-n2cc(Cl)c(OC3CCN(c4ncc(C(F)(F)F)cn4)CC3)cc2=O)cc1` [Example 1, 5-Chloro-1-(4-(methylsulfonyl)phenyl)-4-(1-(5-(trifluoromethyl)pyrimidin-2-yl)piperidin-4-yloxy)pyridin-2(1H)-one] registered a reduction in glucose in the data set with male C57BL/6J mice (at the stated dose (0.1 mg/kg Example 1; 0.3 mg/kg Example 224 of WO 2009/012275 A1)) of 24%. Also, in the data set with male C57BL/6J mice, the “Minimally efficacious Dose” value is 0.1 mg/kg and the “Glucose Lowering” value is −24%. Moreover, it took 8 nM to reach a half-maximal effect in data set [1] (EC50). The same compound returned a half-life at 0.5 µM in “in vitro” of 3 h.

Turning to `CS(=O)(=O)c1ccc(-n2cc(Cl)c(OC3CCN(c4ncc(C(F)(F)F)cn4)CC3)cc2=O)c(F)c1` [Example 2, 5-Chloro-1-(2-fluoro-4-(methylsulfonyl)phenyl)-4-(1-(5-(trifluoromethyl)pyrimidin-2-yl)piperidin-4-yloxy)pyridin-2 (1H)-one], in the data set on male C57BL/6J mice, the “Minimally efficacious Dose” value is given as 0.1 mg/kg and the “Glucose Lowering” value is reported as −29%. In data set [1], this compound came in with an EC50 of 12 nM. Also, the half-life at 0.5 µM in the data set “in vitro” stood at 2.45 h.

Take `CS(=O)(=O)c1ccc(-n2cc(Cl)c(OC3CCN(c4ncc(C(F)(F)F)cn4)CC3)cc2=O)cc1F` [Example 3, 5-Chloro-1-(3-fluoro-4-(methylsulfonyl)phenyl)-4-(1-(5-(trifluoromethyl)pyrimidin-2-yl)piperidin-4-yloxy)pyridin-2(1H)-one]: in the data set on male C57BL/6J mice, the “Minimally efficacious Dose” value stood at 0.1 mg/kg and the “Glucose Lowering” value is given as −28%. For the same compound, in data set [1], the EC50 came out at 7 nM. The same compound registered a half-life at 0.5 µM in the data set “in vitro” of 1.8 h.

Take `CS(=O)(=O)c1ccc(-n2cc(Cl)c(OC3CCN(c4ncc(Cl)cn4)CC3)cc2=O)cc1` [Example 4, 5-Chloro-4-(1-(5-chloropyrimidin-2-yl)piperidin-4-yloxy)-1-(4-(methylsulfonyl)phenyl)pyridin-2(1H)-one]: the half-life at 0.5 µM in data set [2] came to 0.95 h. In the data set on male C57BL/6J mice, the “Minimally efficacious Dose” value turned out to be 0.03 mg/kg and the “Glucose Lowering” value is on record as −24%. The compound also came in with an EC50 in data set [1] of 5 nM.

Take `CS(=O)(=O)c1ccc(-n2cc(Cl)c(OC3CCN(c4ncc(Cl)cn4)CC3)cc2=O)c(F)c1` [Example 5, 5-Chloro-4-(1-(5-chloropyrimidin-2-yl)piperidin-4-yloxy)-1-(2-fluoro-4-(methylsulfonyl)phenyl)pyridin-2(1H)-one]: in the data set on male C57BL/6J mice, the “Minimally efficacious Dose” value came out at 0.06 mg/kg and the “Glucose Lowering” value is −29%. In data set [1], this compound yielded an EC50 of 3 nM. This compound showed a half-life at 0.5 µM in the data set “in vitro” of 1.75 h.

As for `CS(=O)(=O)c1ccc(-n2cc(Cl)c(OC3CCN(c4ncc(Cl)cn4)CC3)cc2=O)cc1F` [Example 6, 5-Chloro-4-(1-(5-chloropyrimidin-2-yl)piperidin-4-yloxy)-1-(3-fluoro-4-(methylsulfonyl)phenyl)pyridin-2(1H)-one], the half-life at 0.5 µM in data set [2] was 0.65 h. Also, in the data set on male C57BL/6J mice, the “Minimally efficacious Dose” value turned out to be 0.1 mg/kg and the “Glucose Lowering” value is −36%. In addition, a half-maximal response in data set [1] (EC50) required 4 nM.

With `CCS(=O)(=O)c1ccc(-n2cc(Cl)c(OC3CCN(c4ncc(C(F)(F)F)cn4)CC3)cc2=O)c(F)c1` [Example 8, 5-Chloro-1-(4-(ethylsulfonyl)-2-fluorophenyl)-4-(1-(5-(trifluoromethyl)pyrimidin-2-yl)piperidin-4-yloxy)pyridin-2(1H)-one], in the data set on male C57BL/6J mice, the “Minimally efficacious Dose” value stood at 0.03 mg/kg and the “Glucose Lowering” value is on record as −26%. Further, the EC50 in data set [1] (setting [3]) is 8 nM. In addition, the half-life at 0.5 µM in “in vitro” was 2 h.

Take `CCS(=O)(=O)c1ccc(-n2cc(Cl)c(OC3CCN(c4ncc(C(F)(F)F)cn4)CC3)cc2=O)cc1F` [Example 9, 5-Chloro-1-(4-(ethylsulfonyl)-3-fluorophenyl)-4-(1-(5-(trifluoromethyl)pyrimidin-2-yl)piperidin-4-yloxy)pyridin-2(1H)-one]: in data set [1] (setting [3]), the EC50 was 13 nM. In “in vitro”, this compound displayed a half-life at 0.5 µM of 1.47 h.

On to `CCS(=O)(=O)c1ccc(-n2cc(Cl)c(OC3CCN(c4ncc(Cl)cn4)CC3)cc2=O)cc1` [Example 10, 5-Chloro-4-(1-(5-chloropyrimidin-2-yl)piperidin-4-yloxy)-1-(4-(ethylsulfonyl)phenyl)pyridin-2(1H)-one], for which the EC50 in data set [1] (setting [3]) came to 2 nM. The same compound registered a half-life at 0.5 µM in the data set “in vitro” of 0.583 h.

Consider `CCS(=O)(=O)c1ccc(-n2cc(Cl)c(OC3CCN(c4ncc(Cl)cn4)CC3)cc2=O)c(F)c1` [Example 11, 5-Chloro-4-(1-(5-chloropyrimidin-2-yl)piperidin-4-yloxy)-1-(4-(ethylsulfonyl)-2-fluorophenyl)pyridin-2(1H)-one], for which the EC50 in data set [1] (setting [3]) is 6 nM. The same compound gave a half-life at 0.5 µM in the data set “in vitro” of 0.85 h.

The record behind these values is patent US8415367B2, “Pyrimidinylpiperidinyloxypyridinone analogues as GPR119 modulators” (Bristol-Myers Squibb Company, priority 2010, dated 2013).
